Biological target: EGFR (Wistar rat) (UniProt P00533)
Details: hepatocyte, dose or concentration not given here

Sequence of EGFR (Wistar rat) (P00533 whole entry, looked up): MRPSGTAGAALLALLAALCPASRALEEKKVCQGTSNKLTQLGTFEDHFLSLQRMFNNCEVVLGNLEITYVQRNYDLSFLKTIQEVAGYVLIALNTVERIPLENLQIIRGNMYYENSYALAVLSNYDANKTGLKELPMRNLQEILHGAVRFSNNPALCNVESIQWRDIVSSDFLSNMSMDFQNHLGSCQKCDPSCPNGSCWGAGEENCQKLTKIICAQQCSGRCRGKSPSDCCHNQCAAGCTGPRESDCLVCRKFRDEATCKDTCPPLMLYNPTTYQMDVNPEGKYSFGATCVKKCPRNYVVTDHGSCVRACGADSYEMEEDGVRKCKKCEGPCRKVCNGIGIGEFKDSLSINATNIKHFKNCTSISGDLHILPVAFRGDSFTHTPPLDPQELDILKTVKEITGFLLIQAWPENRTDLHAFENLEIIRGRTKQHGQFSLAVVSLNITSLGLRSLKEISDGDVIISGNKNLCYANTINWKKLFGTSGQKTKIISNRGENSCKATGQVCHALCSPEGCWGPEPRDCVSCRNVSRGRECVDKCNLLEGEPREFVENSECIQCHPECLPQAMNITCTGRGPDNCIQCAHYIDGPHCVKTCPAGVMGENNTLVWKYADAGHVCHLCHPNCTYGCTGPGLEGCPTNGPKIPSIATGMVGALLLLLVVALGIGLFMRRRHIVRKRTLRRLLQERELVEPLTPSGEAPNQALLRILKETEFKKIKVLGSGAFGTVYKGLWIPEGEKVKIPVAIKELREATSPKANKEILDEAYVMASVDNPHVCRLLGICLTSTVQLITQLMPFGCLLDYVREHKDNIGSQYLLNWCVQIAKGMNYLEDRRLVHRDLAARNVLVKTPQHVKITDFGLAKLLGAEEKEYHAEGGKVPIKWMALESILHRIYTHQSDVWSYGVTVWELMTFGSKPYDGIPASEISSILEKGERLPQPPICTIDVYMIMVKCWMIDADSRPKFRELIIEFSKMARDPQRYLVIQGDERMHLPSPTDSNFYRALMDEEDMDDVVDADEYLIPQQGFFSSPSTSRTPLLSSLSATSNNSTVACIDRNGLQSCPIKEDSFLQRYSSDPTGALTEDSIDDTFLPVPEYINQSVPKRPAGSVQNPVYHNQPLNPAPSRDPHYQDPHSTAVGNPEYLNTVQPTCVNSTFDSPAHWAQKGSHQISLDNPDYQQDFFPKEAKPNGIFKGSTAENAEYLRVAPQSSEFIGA

COc1cccc(-c2cc(=O)c3ccccc3o2)c1N
DNA synthesis: 16%
